Laboratory results published in US20110177105A1, “Novel Selective Inhibitors of Ubiquitin Specific Protease 7, the Pharmaceutical Compositions Thereof and Their Therapeutic Applications” (priority 2010, published 2011).

Columns and labels:
USP7 = USP7 (Homo sapiens, UniProt Q93009); assay: USP7 activity assay (Ub-AMC); type: biochemical; parameters: Full-length wild-type human USP7 and its catalytic mutant (cysteine 223 replaced by alanine, C223A) were produced as N-terminally His-tagged fusions; His tag (pFastBac-HT) (N); made in house; host or cells: Spodoptera frugiperda Sf9 (or High Five) insect cells, baculovirus; conditions: 300 nM Ub-AMC, 100 pM enzyme, 30 min pre-incubation; read-out: USP7 (inhibition of deubiquitinating activity)
Chain of USP7 (Q93009 whole entry, the tested form may be a part): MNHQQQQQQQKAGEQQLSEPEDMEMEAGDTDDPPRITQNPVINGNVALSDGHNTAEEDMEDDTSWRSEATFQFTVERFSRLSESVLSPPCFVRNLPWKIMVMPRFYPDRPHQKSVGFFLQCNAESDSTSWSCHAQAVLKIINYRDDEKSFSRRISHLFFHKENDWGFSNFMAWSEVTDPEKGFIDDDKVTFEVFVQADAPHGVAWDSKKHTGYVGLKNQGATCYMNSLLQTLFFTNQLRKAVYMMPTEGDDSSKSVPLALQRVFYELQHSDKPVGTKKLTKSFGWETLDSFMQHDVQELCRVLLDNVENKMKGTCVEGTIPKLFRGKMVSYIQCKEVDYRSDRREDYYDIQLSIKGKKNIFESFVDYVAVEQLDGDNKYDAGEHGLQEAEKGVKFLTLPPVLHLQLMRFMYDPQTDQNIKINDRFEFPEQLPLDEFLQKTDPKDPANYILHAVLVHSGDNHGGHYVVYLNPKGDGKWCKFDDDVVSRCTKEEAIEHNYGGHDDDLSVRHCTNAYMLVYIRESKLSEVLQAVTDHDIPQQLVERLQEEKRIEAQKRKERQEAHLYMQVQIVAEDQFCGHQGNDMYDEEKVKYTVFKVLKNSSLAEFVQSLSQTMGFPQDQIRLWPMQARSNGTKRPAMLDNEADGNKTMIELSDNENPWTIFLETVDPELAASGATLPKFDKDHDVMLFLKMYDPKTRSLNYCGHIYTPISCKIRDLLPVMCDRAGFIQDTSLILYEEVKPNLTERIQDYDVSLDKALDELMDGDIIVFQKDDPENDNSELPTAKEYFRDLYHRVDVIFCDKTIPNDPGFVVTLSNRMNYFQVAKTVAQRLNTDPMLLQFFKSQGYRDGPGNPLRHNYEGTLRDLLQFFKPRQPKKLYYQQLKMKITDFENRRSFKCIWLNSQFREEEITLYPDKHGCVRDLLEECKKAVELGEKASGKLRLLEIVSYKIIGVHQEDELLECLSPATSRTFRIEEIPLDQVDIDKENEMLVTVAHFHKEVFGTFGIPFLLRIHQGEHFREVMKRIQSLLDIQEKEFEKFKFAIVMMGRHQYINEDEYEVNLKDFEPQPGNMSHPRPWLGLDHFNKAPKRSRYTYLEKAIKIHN
From the text: The cDNA encoding USP7 was obtained by PCR amplification from placenta mRNA. USP7 cDNA was subcloned by PCR into a baculovirus expression vector (pFastBac-HT; Invitrogen). Full-length wild-type human USP7 and its catalytic mutant (cysteine 223 replaced by alanine, C223A) were produced as N-terminally His-tagged fusions in Spodoptera frugiperda cells (Sf9, Invitrogen), using the Bac-to-Bac Baculovirus system from Invitrogen according to the manufacturer's instructions. pFastBac-HT-B-USP7 was used to transform DH10bac cells (Invitrogen), and blue/white selection was carried out on X-gal/IPTG agar plates. Bacmid DNA was prepared by an alkaline lysis procedure. The integrity of the bacmid minipreps and their orientation were checked by PCR, using generic and specific primers. Sf9 insect cells were cultured in InsectXpress medium (Cambrex) at 27° C. and transfected with the corresponding bacmid, using GeneShuttle 40 (Q-BIOgen). Viruses were recovered in the supernatant 72 h after transfection. Viruses were amplified by infecting insect cells (Sf9 or High Five cells; invitrogen) in 50 ml InsectXpress medium in a 150 cm^2 cell culture flask with 500 μl of the supernatant from transfected Sf9 cells. Following the second round of amplification, infected cells were recovered by rapid SDS lysis, boiled for 5 min at 100° C., sonicated briefly and centrifuged for 20 min at 14,000 g. Expression levels in infected Sf9 cells were compared with those in uninfected cells. Fusion proteins were then allowed to bind to TALON beads (BD Biosciences, TALON metal affinity resin) for 30 min at 4° C. with gentle rocking. Beads were extensively washed (50 mM sodium phosphate buffer pH 7.0, 500 mM NaCl, 10 mM Imidazole, 0.5% Triton X-100 and 10% glycerol) and bound proteins were eluted in wash buffer supplemented with 250 mM Imidazole (Sigma). Eluted fractions were resolved on 4-12% NuPAGE gels (Novex, Invitrogen). Fractions containing high concentrations of purified proteins (purity>95%) were dialyzed (20 mM Tris HCl pH 7.6, 200 mM NaCl, 1 mM DTT, 1 mM EDTA and 10% glycerol) were aliquoted and snap frozen in liquid nitrogen before storage at −80° C.
USP7 was diluted in USP buffer (50 mM Tris HCl; 0.5 mM EDTA; 5 mM DTT; 0.01% Triton X-100; Bovine Serum Albumin 0.05 mg·ml^−1 pH 7.6). Compounds stocks (10 mM) were stored at −20° C. in DMSO. Compounds were tested at different concentrations: from 200 μM to 91 nM.
Reactions were performed as duplicates in Black 384 well plates (small volumes microplates; Greiner; 10 μl final reaction volume). The substrate concentration for USP7 was 300 nM Ub-AMC (Chem. Biol., 2003, 10, p. 837-846) (Boston Biochem). The concentrations of the enzyme (USP7) in specificity assays was 100 pM. The concentrations were determined in order to perform specificity assays under initial velocities at fixed substrate concentration. Compounds were pre-incubated with enzymes for 30 minutes at 25° C. Reactions were initiated by addition of substrate to the plates containing the enzymes (+/−compounds) diluted in assay buffer. Reactions were incubated for 60 minutes at 37° C. Reactions were stopped by adding acetic acid (100 mM final). Readings were performed on a Pherastar Fluorescent Reader (BMG). λ Emission 380 nm; λ Excitation=460 nm. Data (mean values+/−standard deviation) were analyzed as % of control (no compound) and plotted as percentage versus the Log of the compound concentration using GraphPad (Prism). Data were fitted to a sigmoidal model (variable slope).

UCH-L3 = target: T1, UCH-L3 (Homo sapiens, UniProt P15374); assay: UCH-L3 activity assay (Ub-AMC); type: biochemical; conditions: 300 nM Ub-AMC, 13 pM enzyme
T1 sequence (P15374 1-230): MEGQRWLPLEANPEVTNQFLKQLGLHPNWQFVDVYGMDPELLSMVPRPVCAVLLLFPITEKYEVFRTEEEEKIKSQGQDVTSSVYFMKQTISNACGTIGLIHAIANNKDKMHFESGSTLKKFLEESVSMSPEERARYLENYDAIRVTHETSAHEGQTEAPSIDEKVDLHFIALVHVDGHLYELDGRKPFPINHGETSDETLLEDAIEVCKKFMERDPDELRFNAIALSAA
Experimental: UCH-L3 was diluted in USP buffer (50 mM Tris HCl; 0.5 mM EDTA; 5 mM DTT; 0.01% Triton X-100; Bovine Serum Albumin 0.05 mg·ml^−1 pH 7.6). Compounds stocks (100 mM) were stored at −20° C. in DMSO. Compounds were tested at different concentrations: from 200 μM to 91 nM.
Reactions were performed as duplicates in Black 384 well plates (small volume microplates; Greiner; 10 μl final reaction volume). The substrate concentration for UCH-L3 was 300 nM Ub-AMC (Boston Biochem). The concentration of the enzyme (UCH-L3) in specificity assays was 13 pM. The concentrations were determined in order to perform specificity assays under initial velocities at fixed substrate concentration. Compounds were pre-incubated with enzymes for 30 minutes at 25° C. Reactions were initiated by addition of substrate to the plates containing the enzymes (+/−compounds) diluted in assay buffer. Reactions were incubated for 60 minutes at 37° C. Reactions were stopped by adding acetic acid (100 mM final). Readings were performed on a Pherastar Fluorescent Reader (BMG). λ Emission 380 nm; λ Excitation=460 nm. Data (mean values+/−standard deviation) were analyzed as % of control (no compound) and plotted as percentage versus the Log of the compound concentration using GraphPad (Prism). Data were fitted to a sigmoidal model (variable slope).

Structure (SMILES) | IC50 (USP7) [µM] | IC50 (UCH-L3) [µM]
CCN(CC)CCNC(=O)c1ccc2c(Cl)c3c(nc2c1)CCCC3 [Example 7, 9-Chloro-5,6,7,8-tetrahydro-acridine-3-carboxylic acid (2-diethylamino-ethyl)-amide] | 24.9 | > 200
CC1CCCC(C)N1CCCNC(=O)c1ccc2c(Cl)c3c(nc2c1)CCCC3 (centres unmarked) [Example 9, 9-Chloro-5,6,7,8-tetrahydro-acridine-3-carboxylic acid [3-(2,6-dimethyl-piperidin-1-yl)-propyl]-amide] | 28.7 | > 200
CN1CCN(CCCNC(=O)c2ccc3c(Cl)c4c(nc3c2)CCCC4)CC1 [Example 15, 9-Chloro-5,6,7,8-tetrahydro-acridine-3-carboxylic acid [3-(4-methyl-piperazin-1-yl)-propyl]-amide] | 43 | > 200
CCN1CCCC1CNC(=O)c1ccc2c(Cl)c3c(nc2c1)CCCC3 (centres unmarked) [Example 2, 9-Chloro-5,6,7,8-tetrahydro-acridine-3-carboxylic acid (1-ethyl-pyrrolidin-2-ylmethyl)-amide] | 11.5 | > 200
O=C(c1ccc2c(Cl)c3c(nc2c1)CCCC3)N1CCC(N2CCCCC2)CC1 [Example 16, [1,4′]Bipiperidinyl-1′-yl-(9-chloro-5,6,7,8-tetrahydro-acridin-3-yl)-methanone] | 46 | > 200
Cc1cccc(CN2CCC(CNC(=O)c3ccc4c(Cl)c5c(nc4c3)CCCC5)CC2)c1 [Example 1, 9-Chloro-5,6,7,8-tetrahydro-acridine-3-carboxylic acid [1-(3-methyl-benzyl)-piperidin-4-ylmethyl]-amide] | 9.1 | > 200
O=C(NCCCN1CCCC1)c1ccc2c(Cl)c3c(nc2c1)CCCC3 [Example 8, 9-Chloro-5,6,7,8-tetrahydro-acridine-3-carboxylic acid (3-pyrrolidin-1-yl-propyl)-amide] | 25.6 | > 200
O=C(c1ccc2c(Cl)c3c(nc2c1)CCCC3)N1CCCCCC1 [Example 12, Azepan-1-yl-(9-chloro-5,6,7,8-tetrahydro-acridin-3-yl)-methanone] | 37.9 | > 200
CN(CCCNC(=O)c1ccc2c(Cl)c3c(nc2c1)CCCC3)Cc1ccccc1 [Example 14, 9-Chloro-5,6,7,8-tetrahydro-acridine-3-carboxylic acid [3-(benzyl-methyl-amino)-propyl]-amide] | 28.1 | > 200

The next lines start with the values.

IC50 (USP7) [µM] | IC50 (UCH-L3) [µM] | Structure (SMILES)
37.9 | > 200 | CCCN1CCN(CCCNC(=O)c2ccc3c(Cl)c4c(nc3c2)CCCC4)CC1 [Example 13, 9-Chloro-5,6,7,8-tetrahydro-acridine-3-carboxylic acid [3-(4-propyl-piperazin-1-yl)-propyl]-amide]
22.6 | > 200 | CCN(CCCNC(=O)c1ccc2c(Cl)c3c(nc2c1)CCCC3)Cc1ccccc1 [Example 5, 9-Chloro-5,6,7,8-tetrahydro-acridine-3-carboxylic acid [3-(benzyl-ethyl-amino)-propyl]-amide]
23.5 | > 200 | CCCCN(CC)CCNC(=O)c1ccc2c(Cl)c3c(nc2c1)CCCC3 [Example 4, 9-Chloro-5,6,7,8-tetrahydro-acridine-3-carboxylic acid [2-(butyl-ethyl-amino)-ethyl]-amide]
29.8 | > 200 | CN(C)CCNC(=O)c1ccc2c(Cl)c3c(nc2c1)CCCC3 [Example 11, 9-Chloro-5,6,7,8-tetrahydro-acridine-3-carboxylic acid (2-dimethylamino-ethyl)-amide]
23.8 | > 200 | CCCN(CCC)CCCNC(=O)c1ccc2c(Cl)c3c(nc2c1)CCCC3 [Example 6, 9-Chloro-5,6,7,8-tetrahydro-acridine-3-carboxylic acid (3-dipropylamino-propyl)-amide]
29.2 | > 200 | CCN(CC)CCCNC(=O)c1ccc2c(Cl)c3c(nc2c1)CCCC3 [Example 10, 9-Chloro-5,6,7,8-tetrahydro-acridine-3-carboxylic acid (3-diethylamino-propyl)-amide]
12.4 | > 200 | CCCN(CCC)CCNC(=O)c1ccc2c(Cl)c3c(nc2c1)CCCC3 [Example 3, 9-Chloro-5,6,7,8-tetrahydro-acridine-3-carboxylic acid (2-dipropylamino-ethyl)-amide]
